In patent publication US9433228B2, “Method for the production of multiple-unsaturated fatty acids in transgenic organisms” (BASF Plant Science GmbH, priority 2003, dated 2016):
Read-outs that look alike come from different tables or passages of the source.

Columns and labels:
PtELO6 (Δ6-elongase) = assay: PtELO6 expressed in yeast, feeding experiment; conditions: for conversion of fatty acid fed: fed to yeast with pYES2-PtELO6; for % Elongation: fatty acid added at 250 μm
Method: The PCR products were incubated for 30 minutes at 21° C. with the yeast expression vector pYES2.1-TOPO (Invitrogen) following the manufacturer's instructions. The PCR product (see SEQ ID NO: 192) was ligated into the vector by means of a T-overhang and the activity of a topoisomerase (Invitrogen). After the incubation, E. coli DH5α cells were transformed. Suitable clones were identified by PCR, the plasmid DNA was isolated by means of the Qiagen DNAeasy kit and verified by sequencing. The correct sequence was then transformed into the Saccharomyces strain INVSc1 (Invitrogen) by electroporation (1500 V). As a control, the blank vector pYES2.1 was transformed in parallel. Thereafter, the yeasts were plated of minimal dropout uracil medium supplemented with 2% glucose. Cells which were capable of growing in the medium without uracil thus comprise the corresponding plasmids pYES2.1 and pYES2.1-PtELO6. After the selection, in each case two transformants were chosen for the further functional expression.
The yeast cells from the main cultures were harvested by centrifugation (100×g, 5 min, 20° C.) and washed with 100 mM NaHCO3, pH 8.0 to remove residual medium and fatty acids. Starting with the yeast cell sediments, fatty acid methyl esters (FAMEs) were prepared by acid methanolysis. To this end, the cell sediments were incubated for one hour at 80° C. together with 2 ml of 1 N methanolic sulfuric acid and 2% (v/v) of dimethoxypropane. The FAMEs were extracted twice with petroleum ether (PE). To remove nonderivatized fatty acids, the organic phases were washed in each case once with 2 ml of 100 mM NaHCO3, pH 8.0 and 2 ml of distilled water. Thereafter, the PE phases were dried with Na2SO4, evaporated under argon and taken up in 100 μl of PE. The samples were separated on a DB-23 capillary column (30 m, 0.25 mm, 0.25 μm, Agilent) in a Hewlett-Packard 6850 gas chromatograph equipped with flame ionization detector. The conditions for the GLC analysis were as follows: the oven temperature was programmed from 50° C. to 250° C. with a rate of 5° C./min and finally 10 min at 250° C. (holding).
The signals were identified by comparing the retention times with corresponding fatty acid standards (Sigma).
Feeding experiment: fatty acids (in bold) were added at in each case 250 μm.
The yeasts which had been transformed with the vector pYES2-PtELO6 were grown in minimal medium in the presence of the fatty acids stated. The fatty acid methyl esters were synthesized by subjecting intact cells to acid methanolysis. Thereafter, the FAMEs were analyzed via GLC.

ELO(Ci) = ELO(Ci) expressed in yeast, conversion of starting materials; format: cell-based, Ciona intestinalis; conditions: fed at in each case 250 μM
Method: (holding). […] Biochem. […] Thereafter, the FAMEs were analyzed via GLC.

ELO(XI) = ELO(XI) expressed in yeast, conversion of starting materials; format: cell-based, Xenopus laevis; conditions: fed at in each case 250 μM
Method: Thereafter, the FAMEs were analyzed via GLC.

TpELO3 (Δ6-elongase) = format: cell-based, Thalassiosira pseudonana
[1] = tested on: Δ6-desaturase OtDes6.1, Δ6-elongase PSE1 and Δ5-desaturase PtD5; assay: Reconstitution of ARA and EPA pathways in yeast: OtDes6.1 with PSE1 and PtD5; format: cell-based, Saccharomyces cerevisiae; conditions: for elongation by Δ6-elongase PSE1 to DHGLA and DHSTA: products of OtDes6.1 from LA and ALA (FIG. 21)
Excerpt: The subsequent desaturation by the Δ5-desaturase PtD5 to give ARA and EPA, respectively, is also problem-free. Approximately 25-30% of the elongase product is desaturated (FIGS. 21 B and D).

OtElo2.1 (Δ6-elongase) = format: cell-based, Ostreococcus tauri
OtElo2 (Δ6-elongase) = format: cell-based, Ostreococcus tauri
TL16y2 = TL16y2 expressed in yeast, feeding experiments; format: cell-based, Thraustochytrium ssp.; conditions: in comparison with the control
Method: The substrate specificity of BioTaurELO1 was determined after expression and feeding of various fatty acids (FIG. 6). […] After the fatty acids had been extracted from the yeasts, they were transmethylated and separated by gas chromatography. The elongation products obtained from the two fatty acids which had been fed are identified by arrows.
The functionality and substrate specificity of TL16y2 was determined after expression and feeding of various fatty acids. […] The feeding experiments were carried-out in the same manner as described for BioTaurELO1. The substrates fed can be detected in large amounts in all transgenic yeasts. […] This means that functional expression of the gene TL16y2 has been possible.

TpELO1 (Δ5-elongase) = assay: TpELO1 expressed in yeast, feeding experiments; conditions: 250 μM fatty acid fed
Method: The PCR products were incubated for 30 minutes at −21° C. with the yeast expression vector pYES2.1-TOPO (Invitrogen) following the manufacturer's instructions. The PCR product was ligated into the vector by means of a T-overhang and the activity of a topoisomerase (Invitrogen). After the incubation, E. coli DH5α cells were transformed. Suitable clones were identified by PCR, the plasmid DNA was isolated by means of the Qiagen DNAeasy kit and verified by sequencing. The correct sequence was then transformed into the Saccharomyces strain INVSc1 (Invitrogen) by electroporation (1500 V). As a control, the blank vector pYES2.1 was transformed in parallel. Thereafter, the yeasts were plated out on minimal dropout uracil medium supplemented with 2% glucose. Cells which were capable of growing in the medium without uracil thus comprise the corresponding plasmids pYES2.1, pYES2.1-TpELO1, pYES2.1-ELO2 and pYES2.1-TpELO3. After the selection, in each case two transformants were chosen for the further functional expression.
The yeast cells from the main cultures were harvested by centrifugation (100×g, 5 min, 20° C.) and washed with 100 mM NaHCO3, pH 8.0 to remove residual medium and fatty acids. […]
The yeasts which had been transformed with the vector pYES2-TpELO1 were grown in minimal medium in the presence of the fatty acids stated. […] Thereafter the FAMEs were analyzed by GLC.

OtElo1.2 (Δ5-elongase) = format: cell-based, Ostreococcus tauri; conditions: Table 15; yeast with pOTE1.2
OmElo3 = OmElo3 expressed in yeast, feeding of fatty acids, GC of FAMEs; format: cell-based, Oncorhynchus mykiss; conditions: yeast with pYes3-OmElo3 and blank vector pYes2, fed 20:5 ω3
OtElo1 (Δ5-elongase) = format: cell-based, Ostreococcus tauri; conditions: Table 15; yeast with pOTE1
[2] = tested on: OmElo3, EgD4 and P. tricornutum Δ5-desaturase (PtD5); assay: Reconstitution of DHA synthesis in yeast: coexpression of OmElo3, EgD4 and PtD5; format: cell-based, Saccharomyces cerevisiae; conditions: fed 18:4 ω3
Method: The reconstitution of the biosynthesis of DHA (22:6 ω3) was carried out starting from EPA (20:5 ω3) or stearidonic acid (18:4 ω3) by coexpressing OmElo3 together with the Euglena gracilis Δ4-desaturase or the Phaeodactylum tricomutum Δ5-desaturase and the Euglena gracilis Δ4-desaturase. To this end, the expression vectors pYes2-EgD4 and pESCLeu-PtD5 were additionally constructed. The abovementioned yeast strain which is already transformed with pYes3-OtElo3 (SEQ ID NO: 55), was transformed further with pYes2-EgD4, or simultaneously with pYes2-EgD4 and pESCLeu-PtD5. […] The cultures were incubated for a further 120 hours at 15° C.
In a further coexpression experiment, OmElo3, EgD4 and a P. tricornutum Δ5-desaturase (PtD5) were expressed together. The transgenic yeasts were fed stearidonic acid (18:4 ω3) and they were analyzed (FIG. 4). The fatty acid fed, 18:4 ω3, was elongated by OmElo3 to give 20:4 ω3 (60% elongation). The latter was desaturated by PtD5 to give 20:5 ω3. The PtD5 activity was 15%. Moreover, it was possible to elongate 20:5 ω3 by OmElo3 to give 22:5 ω3. Thereafter, the newly synthesized 22:5 ω3 was desaturated to 22:6 ω3 (DHA). Up to 0.7% of DHA was obtained in these experiments.

At3g06460 = At3g06460 expressed in yeast, elongation of EPA; conditions: feeding with 250 uM EPA
Excerpt: (§1) To characterize the function of the A. thaliana desaturases, the open reading frame of the DNA in question is cloned downstream of the galactose-inducible GALL promoter of pYES2.1/V5-His-TOPO (Invitrogen), giving rise to the corresponding pAt60 and pAt70 clones.
(§2) The Saccharomyces cerevisiae strain 334 is transformed with the vectors pAt60 and pAt70, respectively by electroporation (1500 V). A yeast which is transformed with the blank vector pYES2.1 is used for control purposes. The transformed yeasts are selected on complete minimal medium (CMdum) agar plates supplemented with 2% glucose, but lacking uracil. After the selection, in each case three transformants are chosen for the further functional expression.
(§3) To express the At elongases, precultures of in each case 5 ml of CMdum liquid medium supplemented with 2% (w/v) raffinose, but without uracil, were inoculated with the selected transformants and incubated for 2 hours at 30° C., 200 rpm.
(§4) 5 ml of CMdum liquid medium (without uracil) supplemented with 2% of raffinose and 300 μM various fatty acids were then inoculated with the precultures to an OD600 of 0.05. Expression was induced by the addition of 2% (w/v) galactose. The cultures were incubated for a further 96 hours at 20° C. […]

OmELO2 = OmELO2 expressed in yeast, feeding of fatty acids; format: cell-based, Oncorhynchus mykiss; conditions: expression in yeast
At3g06470 = At3g06470 expressed in yeast, elongation of EPA; conditions: feeding with 250 uM EPA
Excerpt: as §1, §2, §3, §4

Molecule: CCCCC/C=C\C/C=C\C/C=C\CCCCCCC(=O)O [20:3^Δ8,11,14, dihomo-γ-linolenic acid]
- conversion of fatty acid fed (PtELO6 (Δ6-elongase)): not converted
- Conversion of the starting materials by ELO(Ci) in % (ELO(Ci)): 10%
- Conversion of the starting materials by ELO(XI) in % (ELO(XI)): 5%

Molecule: CCCCCCCCCCCCCCCC(=O)O [16:0, palmitic acid]
- Conversion of the starting materials by ELO(Ci) in % (ELO(Ci)): 0%
- Conversion of the starting materials by ELO(XI) in % (ELO(XI)): 3%

Molecule: CCCCCCC=CCCCCCCCCCC(=O)O [18:1^Δ11]
- conversion of fatty acid fed (PtELO6 (Δ6-elongase)): not converted

Molecule: CCCCCC=CCC=CCC=CCC=CCCCCCC(=O)O [22:4^Δ7,10,13,16, docosatetraenoic acid]
- conversion of fatty acid fed (PtELO6 (Δ6-elongase)): not converted
- Conversion of the starting materials by ELO(Ci) in % (ELO(Ci)): 0%
- Conversion of the starting materials by ELO(XI) in % (ELO(XI)): 0%

Molecule: CCCCC/C=C\C/C=C\CC/C=C\CCCC(=O)O [18:3^Δ5,9,12, pinolenic acid]
- Conversion of the starting materials by ELO(Ci) in % (ELO(Ci)): 38%
- Conversion of the starting materials by ELO(XI) in % (ELO(XI)): 13%

Molecule: CC/C=C\C/C=C\C/C=C\CCCCCCCCCC(=O)O [20:3^Δ11,14,17]
- conversion of fatty acid fed (PtELO6 (Δ6-elongase)): not converted
- Conversion of the starting materials by ELO(Ci) in % (ELO(Ci)): 8%

Molecule: eicosadienoic acid [20:2^Δ11,14]
- conversion of fatty acid fed (PtELO6 (Δ6-elongase)): not converted

Molecule: CCCCCCCCCCCCCCCCCC(=O)O [18:0, stearic acid]
- Conversion of the starting materials by ELO(Ci) in % (ELO(Ci)): 0%
- Conversion of the starting materials by ELO(XI) in % (ELO(XI)): 2%

Molecule: CCCCC/C=C\C/C=C\CCCCCCCC(=O)O [18:2^Δ9,12, linoleic acid]
- % Elongation (PtELO6 (Δ6-elongase)): 0.99%

Molecule: CCCCC/C=C\C/C=C\C/C=C\CCCCC(=O)O [18:3^Δ6,9,12, γ-linolenic acid]
- % conversion rate (TpELO3 (Δ6-elongase)): 75%
- elongation by Δ6-elongase PSE1 to DHGLA and DHSTA [1]: elongated almost quantitatively
- Conversion rate (in %) OtELO2.1 (OtElo2.1 (Δ6-elongase)): 55.7%
- Conversion rate (in %) OtElo2 (OtElo2 (Δ6-elongase)): 15.3%
- % conversion rate (TL16y2; 250 μM fatty acid fed): 74.9%

Molecule: CC/C=C\C/C=C\C/C=C\C/C=C\C/C=C\CCCC(=O)O [20:5^Δ5,8,11,14,17, eicosapentaenoic acid]
- % conversion rate (TpELO1 (Δ5-elongase)): 12.2%
- Conversion rate (in %) OtElo1.2 (OtElo1.2 (Δ5-elongase)): 68.6%
- % conversion rate (TpELO3 (Δ6-elongase); 250 μM of each fatty acid fed): 0%
- elongation of 20:5 ω3 to 22:5 ω3 (OmElo3): 65%
- Conversion rate (in %) OtElo1 (OtElo1 (Δ5-elongase)): 46.8 ± 3.6%
- % conversion rate (TL16y2; 50 μM fatty acid fed): 41%
- % conversion rate (TL16y2; 250 μM fatty acid fed): 8%

Molecule: CC/C=C\C/C=C\C/C=C\C/C=C\CCCCC(=O)O [18:4^Δ6,9,12,15, stearidonic acid]
- % Elongation (PtELO6 (Δ6-elongase)): 76.32%
- % conversion rate (TpELO3 (Δ6-elongase); 250 μM of each fatty acid fed): 85%
- elongation by Δ6-elongase PSE1 to DHGLA and DHSTA [1]: elongated almost quantitatively
- Conversion rate (in %) OtELO2.1 (OtElo2.1 (Δ6-elongase); Table 16, yeast with pOTE2.1): 70.4%
- elongation by OmElo3 to 20:4 ω3 [2]: 60%
- Conversion rate (in %) OtElo2 (OtElo2 (Δ6-elongase); Table 16, yeast with pOTE2): 21.1%
- % conversion rate (TL16y2; 250 μM fatty acid fed): 79.4%

Molecule: CCCCC/C=C\C/C=C\C/C=C\C/C=C\CCCC(=O)O [20:4^Δ5,8,11,14, arachidonic acid]
- % conversion rate (TpELO1 (Δ5-elongase)): 1.7%
- Conversion of the starting materials by ELO(Ci) in % (ELO(Ci)): 10%
- Conversion rate (in %) OtElo1.2 (OtElo1.2 (Δ5-elongase)): 38.0%
- % conversion rate (TpELO3 (Δ6-elongase); 250 μM of each fatty acid fed): 0%
- Conversion rate (in %) OtElo1 (OtElo1 (Δ5-elongase)): 10.8 ± 0.6%
- % conversion rate (TL16y2; 250 μM fatty acid fed): 20.3%
- Conversion of the starting materials by ELO(XI) in % (ELO(XI)): 15%

B1: At3g06460: Arabidopsis thaliana elongase, SEQ ID NO: 135 (protein, listed as Arabidopsis thaliana)
chain: MASVYSTLTYWLVHHPYIANFTWTEGETLGSTVFFVFVVVSLYLSATFLLRYTVDSLPTLGPRILKPITAVHSLILFLLSLTMAVGCTLSLISSSDPKARLFDAVCFPLDVKPKGPLFFWAQVFYLSKILEFVDTLLIILNKSIQRLSFLHVYHHATVVILCYLWLRTRQSMFPVGLVLNSTVHVIMYGYYFLCAIGSRPKWKKLVTNFQMVQFAFGMGLGAAWMLPEHYFGSGCAGIWTVYFNGVFTASLLALFYNFHSKNYEKTTTSPLYKIESFIFIHGERWANKAITLFSKKND
modifications: CDS (1)..(897) delta5-elongase
- Conversion rate of EPA (At3g06460): At3g06460: 3.0%

B2: OmELO2: Oncorhynchus mykiss elongase gene product, SEQ ID NO: 51 (protein)
chain: MASTWQSVQSMRQWILENGDKRTDPWLLVYSPMPVAIIFLLYLGVVWAGPKLMKRREPVDLKAVLIVYNFAMVCLSVYMFHEFLVTSLLSNYSYLCQPVDYSTSPLAMRMAKVCWWFFFSKVIELADTVFFILRKKNSQLTFLHVYHHGTMIFNWWAGVKYLAGGQSFFIGLLNTFVHIVMYSYYGLAALGPHTQKYLWWKRYLTSLQLLQFVLLTTHTGYNLFTECDFPDSMNAVVFAYCVSLIALFSNFYYQSYLNRKSKKT
modifications: Oncorhynchus mykiss; CDS (1)..(795) delta5-elongase
- elongase activity (OmELO2): no elongase activity

B3: At3g06470: Arabidopsis thaliana elongase, SEQ ID NO: 137 (protein, listed as Arabidopsis thaliana)
chain: MASIYSSLTYWLVNHPYISNFTWIEGETLGSTVFFVSVVVSVYLSATFLLRSAIDSLPSLSPRILKPITAVHSLILCLLSLVMAVGCTLSITSSHASSDPMARFLHAICFPVDVKPNGPLFFWAQVFYLSKILEFGDTILIILGKSIQRLSFLHVYHHATVVVMCYLWLRTRQSMFPIALVTNSTVHVIMYGYYFLCAVGSRPKWKRLVTDCQIVQFVFSFGLSGWMLREHLFGSGCTGIWGWCFNAAFNASLLALFSNFHSKNYVKKPTREDGKKSD
modifications: CDS (1)..(837) delta5-elongase
- Conversion rate of EPA (At3g06470): At3g06470: 4.1%

B4: PtD5: Phaeodactylum tricornutum Δ5-desaturase, SEQ ID NO: 5 (protein, listed as Phaeodactylum tricornutum)
chain: MAPDADKLRQRQTTAVAKHNAATISTQERLCSLSSLKGEEVCIDGIIYDLQSFDHPGGETIKMFGGNDVTVQYKMIHPYHTEKHLEKMKRVGKVTDFVCEYKFDTEFEREIKREVFKIVRRGKDFGTLGWFFRAFCYIAIFFYLQYHWVTTGTSWLLAVAYGISQAMIGMNVQHDANHGATSKRPWVNDMLGLGADFIGGSKWLWQEQHWTHHAYTNHAEMDPDSFGAEPMLLFNDYPLDHPARTWLHRFQAFFYMPVLAGYWLSAVFNPQILDLQQRGALSVGIRLDNAFIHSRRKYAVFWRAVYIAVNVIAPFYTNSGLEWSWRVFGNIMLMGVAESLALAVLFSLSHNFESADRDPTAPLKKTGEPVDWFKTQVETSCTYGGFLSGCFTGGLNFQVEHHLFPRMSSAWYPYIAPKVREICAKHGVHYAYYPWIHQNFLSTVRYMHAAGTGANWRQMARENPLTGRA
modifications: CDS (1)..(1410) delta5-desaturase
- share of the elongase product desaturated by Δ5-desaturase PtD5 ([1]; to ARA and EPA (FIGS. 21 B and D)): 25-30%
- PtD5 activity (desaturation of 20:4 ω3 to 20:5 ω3) [2]: 15%
